Like-named read-outs stand apart in the source and are kept apart here.

Assay [1] addresses T1, STAT3-CFP / STAT3-YFP in HEK293 cells (Homo sapiens, UniProt P40763).
T1 construct: expressed in transfected cells; host or cells: HEK293
The experiment in a line: FRET assay of STAT3 dimerization. It counts as cell-based. Particulars: HEK293, 10, 20 or 50 μM, pretreatment before 50 ng/mL IL-6 stimulation. The procedure: The expression vectors for the fusion proteins STAT3-CFP and STAT3-YFP were prepared by the addition of STAT3 cDNA to pAmCyan1-N1 and pZsyellow1-N1. The vector mixture (1:1) was transfected into HEK293 cells with Lipofectamine 2000. The cells were cultured with 2% FBS DMEM for 48 h in a 96-well microtiter plate, treated with 0, 10, 20, or 50 μM BENDA or HP2 in a final DMSO concentration of 0.2% for 24 h, and then stimulated with 50 ng/mL IL-6 for a further 1 h. Fluorescence signals were measured (SpectraMax M5SK). The signals measured by FRET (excitation/emission: 436/528 nm) were corrected for crosstalk signals from cyan (excitation/emission: 436/488 nm) and yellow (excitation/emission: 517/528 nm).

The target of assay [2] is T2, STAT1 SH2 (Homo sapiens, UniProt P42224).
T2 construct: Avi-tag (N); 6His-tag (N)
The assay is described as follows: AlphaScreen SH2 binding assay, STAT1. Here is the method:
(§1) AlphaScreen assays were performed in a final reaction volume of 25 μL of the assay buffer, containing 10 mM HEPES-NaOH (pH 7.4), 50 mM NaCl, 1 mM EDTA (pH 8.0), 0.1% NP-40, and 10 ng/mL BSA in a 96-well microtiter plate at 25°C. The labeled Phospho-Tyr (pTyr) peptide probe was 5-carboxyfluorescein (FITC)-GpYLPQTV for STAT3, FITC-GpYDKPHVL for STAT1, and FITC-PSpYVNVQN for Grb2. A DMSO solution of BENDA was incubated with 50 nM of each SH2-containing protein for 15 min, 50 nM of the corresponding FITC-pTyr peptide was added, and the mixture was incubated for 90 min. Streptavidin-coated donor beads and anti-FITC acceptor beads were added and incubated for 90 min before the signals were measured with an Envision Xcite plate reader (PerkinElmer Life Sciences, Waltham, MA, USA).

The subject of assay [3] is c-Myc protein in MDA-MB-468 cells. The assay is described as follows: Western blotting of c-Myc protein. Format: cell-based, human. Particulars: MDA-MB-468, 50 or 100 μM, 24 h. Here is the method: Cells were treated with PhosphoSafe Extraction Reagent. Total proteins (40 μg) were subjected to SDS-PAGE and then transferred onto a nitrocellulose membrane. Membranes were blocked in 5% skim milk in TBS/0.1% Tween 20, incubated with primary antibodies diluted at 1:1000 in 1.5% skim milk in TBS (pH 7.4)/0.1% Tween 20 overnight at 4°C, and then incubated with HRP-conjugated secondary antibodies diluted at 1:5000 in TBS (pH 7.4)/0.1% Tween 20 for 1 h at room temperature. Immunoblots were developed with a chemiluminescent substrate.

The target in assay [4] is T3, nuclear STAT3 of MDA-MB-468 cells (Homo sapiens, UniProt P40763).
T3 construct: endogenous in cells; host or cells: MDA-MB-468
The experiment in a line: STAT3 DNA binding assay (TransAM ELISA). Format: cell-based. Particulars: MDA-MB-468, 24 h; BENDA 25, 50, 100 μM, HP2 100 μM. The procedure:
The DNA-binding activity of STAT3 was evaluated with a TransAM ELISA kit (Active Motif, Carlsbad, CA, USA). The assay and nuclear extract preparation were performed according to the manufacturer’s instructions. Heat-denatured nuclear extract was used as a negative control. The nuclear extract (20 μg) was added to each well of a 96-well microtiter plate coated with immobilized oligonucleotides containing the STAT3 consensus binding site and incubated at room temperature for 1 h. They were incubated with anti-STAT3 antibody for 1 h at room temperature, followed by HRP-conjugated antibody for 1 h at room temperature. The developing solution was added, the reaction was terminated by the addition of stop solution, and the absorbance was measured at 450 nm with a reference wavelength of 655 nm (SpectraMax M5SK, Molecular Devices, Sunnyvale, CA, USA).
On the technique in general: In an ELISA, binding on a coated surface is turned into a signal by an enzyme label.

Assay [5] deals with cells. Also on record: method as in PMID 22768280. Particulars: cited from earlier work.
Assay [6] deals with c-myc mRNA in MDA-MB-468 cells. The experiment in a line: RT-PCR of c-myc mRNA. Format: cell-based, human. Particulars: 8 h.
In assay [7] the target is T4, rhSTAT3 (Homo sapiens, UniProt P40763).
T4 construct: Full-length cDNAs were obtained from a human cDNA library by PCR; Avi-tag (biotinylated in BirA-BL21) (N); made in house; host or cells: Escherichia coli BirA-BL21
The assay is described as follows: Competition assay with cysteine-blocking reagent Alexa Fluor 488 C5 maleimide. Format: binding. Particulars: 2 h, 10 μM Alexa Fluor 488 C5 maleimide. The procedure:
rhSTAT3 (0.89 μM) in 100 mM HEPES was incubated with 10 μM Alexa Fluor 488 C5 maleimide (Invitrogen, Paisley, UK), a thiol-reactive probe, in the presence or absence of 50 or 100 μM BENDA or HP2 for 2 h at room temperature. Samples were diluted in SDS-PAGE sample buffer without boiling or 2-mercaptoethanol and run on an SDS-PAGE gel. The protein was transferred to a nitrocellulose membrane and then blotted with Ni-HRP. The Alexa-labeled rhSTAT3 was analyzed by fluorescence (excitation/emission: 493/516 nm) and western blotting with Ni-HRP.

Assay [8] deals with T5, Grb2 SH2 (Homo sapiens, UniProt P62993).
T5 construct: Avi-tag (N); 6His-tag (N)
The experiment in a line: AlphaScreen SH2 binding assay, Grb2. Here is the method: as §1
For orientation: Bead proximity is the source of the signal in Alpha formats.

T4 sequence (P40763 whole entry): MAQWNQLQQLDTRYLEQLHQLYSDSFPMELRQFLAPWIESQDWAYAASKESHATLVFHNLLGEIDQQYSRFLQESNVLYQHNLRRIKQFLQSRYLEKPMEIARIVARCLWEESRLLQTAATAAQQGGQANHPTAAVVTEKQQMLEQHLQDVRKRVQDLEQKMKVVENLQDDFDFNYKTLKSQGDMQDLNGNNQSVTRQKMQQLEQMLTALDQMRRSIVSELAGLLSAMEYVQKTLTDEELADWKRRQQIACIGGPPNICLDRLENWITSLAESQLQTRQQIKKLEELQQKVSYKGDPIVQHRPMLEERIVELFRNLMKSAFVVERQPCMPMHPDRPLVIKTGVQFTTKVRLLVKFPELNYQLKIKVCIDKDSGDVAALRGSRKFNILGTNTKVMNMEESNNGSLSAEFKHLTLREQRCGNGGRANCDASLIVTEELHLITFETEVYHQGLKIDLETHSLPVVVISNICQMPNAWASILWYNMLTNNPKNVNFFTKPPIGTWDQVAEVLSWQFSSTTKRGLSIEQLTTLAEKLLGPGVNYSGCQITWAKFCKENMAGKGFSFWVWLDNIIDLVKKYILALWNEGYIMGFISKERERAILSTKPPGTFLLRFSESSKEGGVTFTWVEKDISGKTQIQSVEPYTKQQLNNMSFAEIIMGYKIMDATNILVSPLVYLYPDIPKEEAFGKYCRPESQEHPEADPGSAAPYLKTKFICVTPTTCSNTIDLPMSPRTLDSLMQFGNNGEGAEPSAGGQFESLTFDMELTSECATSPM
T3 sequence (P40763 2-770 limits assumed): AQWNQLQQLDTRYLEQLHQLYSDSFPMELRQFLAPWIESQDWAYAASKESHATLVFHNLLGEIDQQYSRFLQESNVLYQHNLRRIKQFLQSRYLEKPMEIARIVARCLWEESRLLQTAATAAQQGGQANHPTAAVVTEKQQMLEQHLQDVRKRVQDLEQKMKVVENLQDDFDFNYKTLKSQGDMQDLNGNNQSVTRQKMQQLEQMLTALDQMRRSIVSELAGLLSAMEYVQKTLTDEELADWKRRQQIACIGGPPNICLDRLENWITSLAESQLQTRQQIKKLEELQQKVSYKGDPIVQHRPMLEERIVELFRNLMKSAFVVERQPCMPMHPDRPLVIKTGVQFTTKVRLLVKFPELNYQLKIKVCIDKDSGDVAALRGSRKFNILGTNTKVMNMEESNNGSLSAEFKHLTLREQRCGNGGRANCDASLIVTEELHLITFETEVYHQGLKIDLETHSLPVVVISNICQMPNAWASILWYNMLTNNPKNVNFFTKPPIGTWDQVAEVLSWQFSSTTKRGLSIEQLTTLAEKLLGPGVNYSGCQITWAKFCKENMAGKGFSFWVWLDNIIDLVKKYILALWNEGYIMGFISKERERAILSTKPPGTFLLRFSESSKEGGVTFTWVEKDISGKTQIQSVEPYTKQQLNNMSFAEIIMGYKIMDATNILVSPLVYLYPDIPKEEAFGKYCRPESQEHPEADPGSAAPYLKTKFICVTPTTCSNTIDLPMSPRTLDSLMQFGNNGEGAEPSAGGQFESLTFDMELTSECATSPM
T1 sequence (P40763 whole entry): as the sequence (P40763 whole entry) above
T2 sequence (P42224 whole entry): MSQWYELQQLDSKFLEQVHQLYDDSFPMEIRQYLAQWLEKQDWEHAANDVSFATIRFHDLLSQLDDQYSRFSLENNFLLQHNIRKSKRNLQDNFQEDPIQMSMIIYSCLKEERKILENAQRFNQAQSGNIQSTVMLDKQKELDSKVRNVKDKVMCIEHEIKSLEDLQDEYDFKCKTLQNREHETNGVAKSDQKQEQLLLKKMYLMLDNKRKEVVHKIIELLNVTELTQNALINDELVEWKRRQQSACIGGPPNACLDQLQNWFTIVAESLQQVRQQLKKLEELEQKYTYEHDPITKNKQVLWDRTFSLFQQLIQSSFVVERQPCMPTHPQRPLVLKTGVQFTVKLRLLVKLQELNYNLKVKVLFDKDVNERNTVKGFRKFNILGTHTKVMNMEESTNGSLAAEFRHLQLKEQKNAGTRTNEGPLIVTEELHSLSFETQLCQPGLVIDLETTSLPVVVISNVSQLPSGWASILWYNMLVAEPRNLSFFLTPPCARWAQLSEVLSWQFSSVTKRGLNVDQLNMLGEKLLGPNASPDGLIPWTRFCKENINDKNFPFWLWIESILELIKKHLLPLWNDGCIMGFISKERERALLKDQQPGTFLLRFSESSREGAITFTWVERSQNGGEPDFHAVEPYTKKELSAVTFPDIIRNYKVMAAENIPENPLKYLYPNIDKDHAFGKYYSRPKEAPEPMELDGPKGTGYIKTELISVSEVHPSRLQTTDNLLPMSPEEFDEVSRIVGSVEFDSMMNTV
T5 sequence (P62993 whole entry): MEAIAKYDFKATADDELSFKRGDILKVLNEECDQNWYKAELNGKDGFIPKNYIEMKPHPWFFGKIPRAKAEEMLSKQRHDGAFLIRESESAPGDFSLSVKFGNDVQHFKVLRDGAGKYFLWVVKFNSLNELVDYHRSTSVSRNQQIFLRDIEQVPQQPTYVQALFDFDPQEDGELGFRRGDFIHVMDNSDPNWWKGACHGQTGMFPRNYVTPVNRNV

On to `Cn1c(CCCC(=O)O)nc2cc(N(CCCl)CCCl)ccc21` [BENDA, 4-{5-[bis(2-chloroethyl)amino]-1-methyl-2-benzimidazolyl} butyric acid], for which the “Effect on FRET signals (STAT3 dimerization)” value in assay [1] was “reduced the FRET signals”. The figures for the 50% inhibitory concentration (IC50) in assay [2] and in assay [8] were 60 µM and more than 100 µM, respectively. Further, in assay [3], the “Expression of c-Myc protein” value is given as “inhibited the expression of c-Myc protein”. In addition, the “Inhibition of STAT3 binding to oligonucleotides containing STAT3 consensus binding site” value in assay [4] is on record as “inhibited”. Moreover, the Cell cycle arrest result in assay [5] (50 μM) is given as “transiently arrested cells in G2”; in assay [5] (200 μM), “arrested cells in S phase”. Also, the “c-myc mRNA expression, % of vehicle treatment” value in assay [6] (MDA-MB-468, 50 μM) is listed as 72%; in assay [6] (MDA-MB-468, 100 μM), 33%. The “Fluorescence intensity of Alexa-labeled rhSTAT3 (reduced to)” value turned out to be 62% in assay [7] (50 μM compound) and 52% in assay [7] (100 μM compound).

By IC50 is commonly meant the concentration needed to halve the response being measured. Low readings indicate greater potency in that assay, high ones weaker potency in that assay.

Source of the values: paper PMC5268383, “Inhibition of STAT3 by Anticancer Drug Bendamustine” (PLoS ONE, 2017).
